In brackets after ≈: the same amount, converted by molar mass. Where two headings read alike, the source gives them in different places.
Experiments:
[1] = test system: Enterococcus faecalis MB 5407; assay: MIC, liquid turbidimetric microtiter method in brain heart infusion broth; format: cell-based; conditions: MB5407
Description: (§1) The antibacterial activity of 9-deoxo-9(Z)-hydroxyiminoerythromycin A (II) against a panel of aerobic Gram positive and negative bacteria is shown in the following Table. The assay employs a liquid turbidimetric microtiter method for determination of the minimum inhibitory concentration (MIC) in brain heart infusion broth. […] The MIC is generally not an absolute value but rather a concentration range that falls within a two-fold dilution limit. Generally twelve two-fold dilutions of the test compound are employed with the initial concentration set at 128 mcg/ml.

[2] = test system: Enterococcus faecium MB 5416; assay: as above; format: cell-based; conditions: MB5416
Description: as §1

[3] = test system: Klebsiella pneumoniae MB4005; assay: as above; format: cell-based
Description: as §1

[4] = test system: Staphylococcus aureus MB 2865; assay: as above; format: cell-based; conditions: MB2865
Description: as §1

[5] = test system: Staphylococcus epidermidis MB 5414; assay: as above; format: cell-based; conditions: MB5414
Description: as §1

[6] = test system: Staphylococcus haemolyticus MB 5412; assay: as above; format: cell-based; conditions: MB5412
Description: as §1

[7] = test system: Steptococcus pneumoniae CL 2883; assay: as above; format: cell-based
Description: as §1

[8] = test system: Streptococcus agalactiae CL 1343; assay: as above; format: cell-based; conditions: CL1343
Description: as §1

[9] = test system: Streptococcus pyogenes MB 2874; assay: as above; format: cell-based; conditions: MB2874
Description: as §1

[10] = test system: Streptococcus pyogenes MB 5406; assay: as above; format: cell-based; conditions: MB5406
Description: as §1

[11] = test system: Streptococcus viridans CL 2943; assay: as above; format: cell-based; conditions: CL2943
Description: as §1

[12] = test system: Yersinia enterocoltica CL 1598; assay: as above; format: cell-based; conditions: CL1598
Description: as §1

Escherichia coli MB 2884 = assay: as above; format: cell-based; conditions: MB2884
Description: (§2) The assay employs a liquid turbidimetric microtiter method for determination of the minimum inhibitory concentration (MIC) in brain heart infusion broth. […] The MIC is generally not an absolute value but rather a concentration range that falls within a two-fold dilution limit.

Escherichia coli MB 4926 = assay: as above; format: cell-based; conditions: MB4926
Description: as §2

[13] = test system: Pseudomonas stutzeri MB 1231; assay: as above; format: cell-based; conditions: Stutzerimonas stutzeri, MB1231
Description: as §2

[14] = test system: panel of aerobic Gram positive and negative bacteria; assay: antibacterial activity in vitro against a panel of bacteria; format: cell-based
Description: as §1

[15] = isomer conversion under the MIC assay conditions; format: physicochemical
Description: as §1

[16] = test system: Gram-positive microorganisms, e.g. Staphylococcus aureaus and Streptococcus pyogenes, and certain Gram-negative microorganisms; assay: in vivo antibacterial activity, infected mice treated orally or subcutaneously
Description: Extrapolation of such in vivo tests to support for human utility for macrolide compounds is likewise taught in U.S. Pat. No. 4,518,590, cited above.

[17] = Enterococcus faecalis MB 5407, brain heart infusion broth, read-out: MIC
[18] = Enterococcus faecium MB 5416, brain heart infusion broth, read-out: MIC
[19] = Klebsiella pneumoniae MB4005, brain heart infusion broth, read-out: MIC
[20] = Staphylococcus aureus MB 2865, brain heart infusion broth, read-out: MIC
[21] = Staphylococcus epidermidis MB 5414, brain heart infusion broth, read-out: MIC
[22] = Staphylococcus haemolyticus MB 5412, brain heart infusion broth, read-out: MIC
[23] = Steptococcus pneumoniae CL 2883, brain heart infusion broth, read-out: MIC
[24] = Streptococcus agalactiae CL 1343, brain heart infusion broth, read-out: MIC
[25] = Streptococcus pyogenes MB 2874, brain heart infusion broth, read-out: MIC
[26] = Streptococcus pyogenes MB 5406, brain heart infusion broth, read-out: MIC
[27] = Streptococcus viridans CL 2943, brain heart infusion broth, read-out: MIC
[28] = Yersinia enterocoltica CL 1598, brain heart infusion broth, read-out: MIC

Row | SMILES | MIC (Escherichia coli MB 2884) [µg/mL] | MIC (Escherichia coli MB 4926) [µg/mL] | MIC [13] [µg/mL] | MIC [1, 17] [µg/mL] | MIC [2, 18] [µg/mL] | MIC [3, 19] [µg/mL] | MIC [4, 20] [µg/mL] | MIC [5, 21] [µg/mL] | MIC [6, 22] [µg/mL] | MIC [7, 23] [µg/mL] | MIC [8, 24] [µg/mL] | MIC [9, 25] [µg/mL] | MIC [10, 26] [µg/mL] | MIC [11, 27] [µg/mL] | MIC [12, 28] [µg/mL] | other results
1 | CC[C@H]1OC(=O)[C@H](C)[C@@H](O[C@H]2C[C@@](C)(OC)[C@@H](O)[C@H](C)O2)[C@H](C)[C@@H](O[C@@H]2O[C@H](C)C[C@H](N(C)C)[C@H]2O)[C@](C)(O)C[C@@H](C)C(=O)[C@H](C)[C@@H](O)[C@]1(C)O [(I), Erythromycin A] | 16 (≈ 21.8 µM) | 0.25 (≈ 0.341 µM) | ≤ 0.06 | – | – | – | – | – | – | – | – | – | – | – | – | MIC ([1]; Enterococcus faecalis): 1 µg/mL (≈ 1.36 µM); MIC ([2]; Enterococcus faecium): 0.12 µg/mL (≈ 0.164 µM); MIC ([3]; Klebsiella pneumoniae, MB4005): 32 µg/mL (≈ 43.6 µM); MIC ([4]; Staphylococcus aureus): 0.25 µg/mL (≈ 0.341 µM); MIC ([5]; Staphylococcus epidermidis): 0.12 µg/mL (≈ 0.164 µM); MIC ([6]; Staphylococcus haemolyticus): 0.12 µg/mL (≈ 0.164 µM); MIC [7]: ≤ 0.06 µg/mL; MIC ([8]; Streptococcus agalactiae): ≤ 0.06 µg/mL; MIC ([9]; Streptococcus pyogenes): ≤ 0.06 µg/mL; MIC ([10]; Streptococcus pyogenes): 16 µg/mL (≈ 21.8 µM); MIC ([11]; Streptococcus viridans): ≤ 0.06 µg/mL; MIC ([12]; Yersinia): 32 µg/mL (≈ 43.6 µM)
2 | CC[C@H]1OC(=O)[C@H](C)[C@@H](O[C@H]2C[C@@](C)(OC)[C@@H](O)[C@H](C)O2)[C@H](C)[C@@H](O[C@@H]2O[C@H](C)C[C@H](N(C)C)[C@H]2O)[C@](C)(O)C[C@@H](C)/C(=N/O)[C@H](C)[C@@H](O)[C@]1(C)O [(II), 9-Deoxo-9(Z)-hydroxyiminoerythromycin A] | 16 (≈ 21.4 µM) | 0.5 (≈ 0.668 µM) | ≤ 0.06 | 2 (≈ 2.67 µM) | 0.25 (≈ 0.334 µM) | 32 (≈ 42.7 µM) | 0.25 (≈ 0.334 µM) | 0.12 (≈ 0.16 µM) | 0.12 (≈ 0.16 µM) | ≤ 0.06 | ≤ 0.06 | ≤ 0.06 | 32 (≈ 42.7 µM) | ≤ 0.06 | 32 (≈ 42.7 µM) | activity in vitro (in words) ([14]; MIC panel, compared with (III) and erythromycin A (I)): comparable with the activities of the known compounds 9-deoxo-9(E)-hydroxyiminoerythromycin A (III) and erythromycin A (I); in vitro activity against Gram-positive and certain Gram-negative microorganisms ([14]; e.g. Staphylococcus aureas, Streptococcus pyogenes, certain Gram-negative cocci): exhibits in vitro activity against a variety of Gram-positive microorganisms, e.g. Staphylococcus aureas and Streptococcus pyogenes, and against certain Gram-negative microorganisms; conversion of (Z)isomer to (E)isomer [15]: An undetermined fraction of the (Z)isomer is converting; in vivo activity compared with in vitro activity ([16]; as regards susceptible organisms): more limited than its in vitro activity; in vivo activity ([16]; oral and parenteral routes): active in vivo versus a variety of Gram-positive microorganisms, e.g. Staphylococcus aureaus and Streptococcus pyogenes, and also certain Gram-negative microorganisms
3 | CC[C@H]1OC(=O)[C@H](C)[C@@H](O[C@H]2C[C@@](C)(OC)[C@@H](O)[C@H](C)O2)[C@H](C)[C@@H](O[C@@H]2O[C@H](C)C[C@H](N(C)C)[C@H]2O)[C@](C)(O)C[C@@H](C)/C(=N\O)[C@H](C)[C@@H](O)[C@]1(C)O [(III), 9-Deoxo-9(E)-hydroxyiminoerythromycin A] | 32 (≈ 42.7 µM) | 0.25 (≈ 0.334 µM) | 1 (≈ 1.34 µM) | 0.5 (≈ 0.668 µM) | 0.12 (≈ 0.16 µM) | 32 (≈ 42.7 µM) | 0.25 (≈ 0.334 µM) | 0.12 (≈ 0.16 µM) | 0.12 (≈ 0.16 µM) | 0.12 (≈ 0.16 µM) | ≤ 0.06 | ≤ 0.06 | 16 (≈ 21.4 µM) | ≤ 0.06 | 16 (≈ 21.4 µM) | –
